Measurements from patent US20090062255A1, “TUMOR-TARGETING EVALUATION METHODOLOGY AND COMPOUNDS RELATED THERETO” (THALLION PHARMACEUTICALS INC., priority 2007, published 2009).
Several values for one entry are separate records, joined by “and”; a condition that tells them apart may be missing. Equal entries are not always repeated.

Assays:
[1] = test system: Acyl CoA-Cholesterol Acyltransferase (ACAT); assay: ACAT enzyme assay; format: biochemical, rat; conditions: 10 μM compound, 1% DMSO
From the text: Acyl CoA-Cholesterol Acyltransferase (ACAT) converts cholesterol to cholesteryl esters and is involved in the development of artherioscerosis.
(§1) The procedures used were based on known assays: ACAT (from rat; Ref: Largis et al (1989), J. Lipid. Res., vol 30, 681-689), COX-2 (human; Ref: Riendeau et al (1997), Can. J. Physiol. Pharmacol., vol 75, 1088-1095 and Warner et al (1999), Pro. Natl. Acad. Sci. USA, vol 96, 7563-7568), 5-LO (human; Ref: Carter et al (1991), J. Pharmacol. Exp. Ther., vol 256, no 3, 929-937, and Safayhi et al (2000), Planta Medica, vol 66, 110-113), PBR (from rat; Le Fur et al (1983), Life Sci. USA, vol 33, 449-457), CysLT1 (human; Martin et al (2001), Biochem. Pharmacol., vol 62, no 9, 1193-1200) and CBR (from rat; Damm et al (1978), Res. Comm. Chem. Pathol. Pharmacol., vol 22, 597-600 and Speth et al (1979), Life Sci., vol 24, 351-357).
(§2) Binding assays were done for each of Compounds 1-12 and 46 using ACAT, COX-2, 5-LO, PBR and CysLT1 enzymes. The procedures used are based on the respective references mentioned above and the conditions are summarized in Tables 16 (enzyme assays) and 17 (radioligand receptor assays).
(§3) Binding Assays were done at constant concentration of the compound, in 1% DMSO as vehicle, and are specified below each enzyme/receptor type in Table 18. The results are expressed in Table 18 as percentage inhibition. Significance was obtained when a result was ≧50% binding or inhibition (underlined).

Cyclooxygenase-2 (COX-2) = molecular target: T1, Cyclooxygenase-2 (COX-2) (Homo sapiens, UniProt P35354); assay: COX-2 enzyme assay; format: biochemical; conditions: 4 μM compound, 1% DMSO; read-out: Percentage of inhibition or binding activity, COX-2 (4 μM)
T1 construct: host or cells: insect Sf21 cells
T1 sequence (P35354 18-604): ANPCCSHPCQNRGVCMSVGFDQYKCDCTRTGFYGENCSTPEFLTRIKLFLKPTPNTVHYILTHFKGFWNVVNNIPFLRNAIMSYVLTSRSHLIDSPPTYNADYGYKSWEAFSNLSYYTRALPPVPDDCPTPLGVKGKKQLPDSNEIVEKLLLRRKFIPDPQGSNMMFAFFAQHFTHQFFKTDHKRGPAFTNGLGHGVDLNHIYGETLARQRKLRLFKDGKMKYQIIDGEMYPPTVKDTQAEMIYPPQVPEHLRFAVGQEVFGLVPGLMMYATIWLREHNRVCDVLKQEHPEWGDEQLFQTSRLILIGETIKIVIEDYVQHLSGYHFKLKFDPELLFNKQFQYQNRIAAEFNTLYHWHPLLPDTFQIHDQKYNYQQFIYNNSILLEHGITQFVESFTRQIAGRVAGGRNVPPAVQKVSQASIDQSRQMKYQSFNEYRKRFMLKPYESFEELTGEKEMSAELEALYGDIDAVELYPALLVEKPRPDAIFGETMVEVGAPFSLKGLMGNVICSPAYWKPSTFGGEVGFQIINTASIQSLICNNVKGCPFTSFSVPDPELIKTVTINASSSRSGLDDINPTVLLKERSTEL
From the text: Cyclooxygenase-2 (COX-2) enzyme is made only in response to injury or infection. It produces prostaglandins involved in inflammation and the immune response. Elevated levels of COX-2 in the body have been linked to cancer.
as §1, §2, §3

[2] = molecular target: T2, peripheral benzodiazepine receptor (PBR) (Rattus norvegicus, UniProt P16257); assay: PBR radioligand binding assay ([3H]PK-11195, rat heart); conditions: for inhibition at 1 µM: 1 μM compound, 1% DMSO, read-out: Percentage of inhibition or binding activity, PBR (1 μM)
T2 construct: CBR and PBR were obtained from rat brain and heart membrane-fractions, respectively; from tissue; host or cells: Wistar rat heart membranes
From the text: as §1, §2, §3
As Compound 1 was isolated from structural prediction through genetic analysis and activity identified through in vitro cytotoxic assays, its molecular target(s) were unknown at the time of discovery. Based on the structural characteristics of ECO-4601, we first investigated its binding affinity to the central (GABAA; CBR;) and peripheral (PBR) benzodiazepine receptors. The effect of ECO-4601 on CBR (GABAA) and PBR was initially evaluated in a radioligand-binding assay at MDS Pharma Services (Taipei, Tawain). CBR and PBR were obtained from rat brain and heart membrane-fractions, respectively. Displacement assays were done in the presence of 1 nM [^3H]-Flunitrazepam (CBR; GABAA) or 0.3 nM of [^3H]-PK11195 (PBR). ECO-4601 was tested at 0.01, 0.1, 0.5, 1, 5 and 10 μM. Non-specific binding was estimated in the presence of 10 μM diazepam (CBR) or 100 μM dipyrimadole (PBR) and assays were performed according to previous described methods (Damm et al Res Commun Chem Pathol Pharmacol 22, pp 597-600; Le Fur et al (1983) Life Science 33, pp 449-57). […] This contrats with current specific PBR ligands, which bind the PBR with nanomolar affinity yet their effect on cell proliferation, is in the micromolar range.

[3] = molecular target: T3, Leukotriene, Cysteinyl (CysLT1) receptor (Homo sapiens, UniProt Q9Y271); assay: CysLT1 radioligand binding assay; conditions: 4 μM compound, 1% DMSO; read-out: Percentage of inhibition or binding activity, CysLT1 (4 μM)
T3 construct: expressed in transfected cells; host or cells: CHO-K1 cells
T3 sequence (Q9Y271 1-337): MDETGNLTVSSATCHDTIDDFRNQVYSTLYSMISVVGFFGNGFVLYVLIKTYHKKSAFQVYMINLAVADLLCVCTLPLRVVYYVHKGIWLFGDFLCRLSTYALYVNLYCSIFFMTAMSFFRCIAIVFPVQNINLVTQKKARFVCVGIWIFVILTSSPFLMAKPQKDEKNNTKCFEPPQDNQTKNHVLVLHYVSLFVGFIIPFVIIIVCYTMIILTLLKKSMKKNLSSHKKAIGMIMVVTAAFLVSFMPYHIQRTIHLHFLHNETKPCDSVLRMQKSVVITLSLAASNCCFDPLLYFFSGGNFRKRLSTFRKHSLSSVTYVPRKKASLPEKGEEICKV
From the text: Leukotriene, Cysteinyl (CysLT1) is involved in inflammation and CysLT1-selective antagonists are used as treatment for bronchial asthma.
as §1, §2, §3

Compound | Percentage of inhibition or binding activity, ACAT (10 μM) [1] [%] | inhibition at 4 µM (Cyclooxygenase-2 (COX-2)) [%] | inhibition at 1 µM [2] [%] | inhibition at 4 µM [3] [%] | IC50 ([2]; multiple dilutions, 0.3 nM [3H]-PK11195, rat heart, read-out: PBR IC50 (binding affinity)) | Ki ([2]; multiple dilutions, read-out: PBR inhibition constant (Ki)) [µM]
CC(=O)Oc1cc(O)c2c(c1)N(CC=C(C)CCC=C(C)CCC=C(C)C)C(=O)c1cccc(OC(C)=O)c1N2 [Compound 11, 4,8-diacetoxy-10-farnesyl-6-hydroxy-5,10-dihydro-dibenzo[b,e][1,4]diazepin-11-one] | 71 | 57 | 39 | 74 | – | –
COc1cc(OC)c2c(c1)N(C/C=C(\C)CC/C=C(\C)CCC=C(C)C)C(=O)c1cccc(O)c1N2 [Compound 6, 10-farnesyl-4-hydroxy-6,8-dimethoxy-5,10-dihydro-dibenzo[b,e][1,4]diazepin-11-one] | 54 | 45 | 75 | 24 | – | –
COc1cc(OC)c2c(c1)N(CC=C(C)CCC=C(C)CCC=C(C)C)C(=O)c1cccc(OC)c1N2 [Compound 8, 10-farnesyl-4,6,8-trimethoxy-5,10-dihydro-dibenzo[b,e][1,4]diazepin-11-one] | 40 | 19 | 55 | 13 | – | –
CC(C)=CCC/C(C)=C/CC/C(C)=C/CN1C(=O)c2cccc(O)c2N(Cc2ccccc2)c2c(O)cc(O)cc21 [Compound 3, 5-benzyl-10-farnesyl-4,6,8-trihydroxy-5,10-dihydro-dibenzo[b,e][1,4]diazepin-11-one] | 63 | 76 | 11 | 59 | – | –
COc1cc(O)cc2c1Nc1c(O)cccc1C(=O)N2C/C=C(\C)CC/C=C(\C)CCC=C(C)C [Compound 5, 10-farnesyl-4,8-dihydroxy-6-methoxy-5,10-dihydro-dibenzo[b,e][1,4]diazepin-11-one] | 60 | 63 | 68 | 72 | – | –
CC(=O)Oc1cc(OC(C)=O)c2c(c1)N(CC=C(C)CCC=C(C)CCC=C(C)C)C(=O)c1cccc(O)c1N2 [Compound 9, 6,8-diacetoxy-10-farnesyl-4-hydroxy-5,10-dihydro-dibenzo[b,e][1,4]diazepin-11-one] | 77 | 44 | 32 | 70 | – | –
CC(=O)Oc1cc(OC(C)=O)c2c(c1)N(CC=C(C)CCC=C(C)CCC=C(C)C)C(=O)c1cccc(OC(C)=O)c1N2 [Compound 12, 4,6,8-triacetoxy-10-farnesyl-5,10-dihydro-dibenzo[b,e][1,4]diazepin-11-one] | 83 | 30 | 39 | 33 | – | –
CC(=O)Oc1cccc2c1Nc1c(OC(C)=O)cc(O)cc1N(CC=C(C)CCC=C(C)CCC=C(C)C)C2=O [Compound 10, 4,6-diacetoxy-10-farnesyl-8-hydroxy-5,10-dihydro-dibenzo[b,e][1,4]diazepin-11-one] | 90 | 45 | 86 | 67 | – | –
COc1cccc2c1Nc1c(OC)cc(O)cc1N(CC=C(C)CCC=C(C)CCC=C(C)C)C2=O [Compound 7, 10-farnesyl-8-hydroxy-4,6-dimethoxy-5,10-dihydro-dibenzo[b,e][1,4]diazepin-11-one] | 95 | 26 | 65 | 15 | – | –
CC(C)=CCC/C(C)=C/CC/C(C)=C/CN1C(=O)c2cccc(O)c2N(C)c2c(O)cc(O)cc21 [Compound 2, 10-farnesyl-4,6,8-trihydroxy-5-methyl-5,10-dihydro-dibenzo[b,e][1,4]diazepin-11-one] | 51 | 92 | 65 | 75 | – | –
CC(C)=CCC/C(C)=C/CC/C(C)=C/CN1C(=O)c2cccc(O)c2Nc2c(O)cc(O)cc21 [Compound 1, 10-farnesyl-4,6,8-trihydroxy-5,10-dihydrodibenzo[b,e][1,4]diazepin-11-one] | 90 | 96 | 80 | 92 | 0.291 µM and ~0.3 µM | 0.257
COc1cccc2c1Nc1c(O)cc(O)cc1N(C/C=C(\C)CC/C=C(\C)CCC=C(C)C)C2=O [Compound 4, 10-farnesyl-6,8-dihydroxy-4-methoxy-5,10-dihydro-dibenzo[b,e][1,4]diazepin-11-one] | 65 | 78 | 92 | 64 | – | –
CC(C)CCCC(C)CCCC(C)CCN1C(=O)c2cccc(O)c2Nc2c(O)cc(O)cc21 (stereo not drawn) [Compound 46, 10-(3,7,11-trimethyldodecyl)-4,6,8-trihydroxy-5,10-dihydro-dibenzo[b,e][1,4]diazepin-11-one] | 8 | 95 | -1 | 71 | – | –
